The nature of the data set: solvent given as SMILES.

`O=Cc1ccc2c(c1)c1ccccc1n2-c1ccc(-c2ccc(-n3c4ccccc4c4cc(C=O)ccc43)cc2)cc1`: the emission maximum (in ClCCl) was found to be 405 nm.

The compound `CCn1ncc2c3c(C#N)c4c5ccccc5n(CC)c4nc3ccc21` registered an emission maximum (in CCOC(C)=O) of 476 nm.

Regarding `COc1cc2cc(-c3ccc(C(=O)OCOC(C)=O)cc3C(=O)OCOC(C)=O)oc2cc1N1CCOCCOCCN(c2cc3oc(-c4ccc(C(=O)OCOC(C)=O)cc4C(=O)OCOC(C)=O)cc3cc2OC)CCOCCOCC1`, the emission maximum (in O) is reported as 546 nm.

On to `c1ccc(-c2c3c(nc4ccccc24)-c2cc4c(cc2CC3)-c2nc3ccccc3c(-c3ccccc3)c2CC4)cc1`, for which, for the setting “in ClC(Cl)Cl”, the emission maximum was 387 nm.

In turn, `Fc1nc(F)c(F)c(C#Cc2ccccc2C#Cc2c(F)c(F)nc(F)c2F)c1F` yielded an emission maximum (in CC#N) of 370 nm.

As to `O=c1oc2ccccc2nc1-c1ccccc1`, the emission maximum (in c1ccccc1) turned out to be 450 nm.

For the setting “in ClCCl”, `CCCCn1c(-c2ccc(-c3nnc(-c4ccc(-c5nc6ccccc6n5CCCC)cc4)o3)cc2)nc2ccccc21` had an emission maximum of 407 nm.

Where the note is “in C1CCOC1”, `COC(=O)c1ccc(/C=C/C(F)(F)F)c(N)c1` had an emission maximum of 447 nm.

Take `CC(C)(C)c1ccc(C2=C(c3ccc(-n4c5ccc(C(C)(C)C)cc5c5cc(C(C)(C)C)ccc54)cc3)S(=O)(=O)c3c2sc(-c2ccc(-n4c5ccc(C(C)(C)C)cc5c5cc(C(C)(C)C)ccc54)cc2)c3-c2ccc(C(C)(C)C)cc2)cc1`: the emission maximum (in C1CCOC1) is 555 nm.

Consider `N#Cc1c(N2CCCCC2)cc(-c2ccc3ccc4cccc5ccc2c3c45)c2c1-c1ccccc1C2`, for which the emission maximum (in C1CCOC1) came out at 460 nm.

Take `CC(C)[Si](C#Cc1c2nc3c(nc2c(C#C[Si](C(C)C)(C(C)C)C(C)C)c2nc4c(nc12)C1c2ccccc2C4c2ccccc21)C1c2ccccc2C3c2ccccc21)(C(C)C)C(C)C`: the emission maximum (in CCCCCC) amounted to 466 nm.

Take `CN(C)c1ccc(/C=C/c2nc(N3CCOCC3)c3c([n+]2[O-])CCCC3)cc1`: the emission maximum (in ClCCl) is listed as 523 nm.

In turn, `CN(C)c1ccc(C2=C(c3ccccc3)c3oc4ccccc4[n+]3[B-](F)(F)O2)cc1` had an emission maximum (in C1CCOC1) of 476 nm.

`CC(C)(C)c1ccc2c(c1)c1cc(C(C)(C)C)ccc1n2-c1ccc(C(=C(C#N)C#N)c2ccc(-n3c4ccc(C(C)(C)C)cc4c4cc(C(C)(C)C)ccc43)cc2)cc1` gave an emission maximum (in Cc1ccccc1) of 566 nm.

`c1ccc2cc3c4c(ccc3cc2c1)-c1cccc2cccc-4c12` came in with an emission maximum (in CCCCCCC) of 520 nm.

The compound `CC(=O)OCOC(=O)CN(CC(=O)OCOC(C)=O)c1ccccc1OCCOc1cc(NC(=O)c2ccc3c(c2)C(=O)OC32c3cc(Cl)c(OC(C)=O)cc3Oc3cc(OC(C)=O)c(Cl)cc32)ccc1N(CC(=O)OCOC(C)=O)CC(=O)OCOC(C)=O` returned an emission maximum (in O) of 534 nm.

Compound `C1=C(c2ccc(-c3cccs3)s2)CCCC1` displayed an emission maximum (in C1CCOC1) of 423 nm; an emission maximum (in CC#N) of 415 nm; an emission maximum (in CCCCCC) of 411 nm; an emission maximum (in CCO) of 445 nm; an emission maximum (in OCCOCCO) of 446 nm; an emission maximum (in c1ccncc1) of 423 nm.

`COc1ccc(C2=[N+]3C(=Nc4c5c6ccccc6c6ccc(C(C)(C)C)cc6c5c(-c5ccc(OC)cc5)n4[B-]3(F)F)c3c2c2cc(C(C)(C)C)ccc2c2ccccc32)cc1` came in with an emission maximum (in Cc1ccccc1) of 741 nm.

With `CC(=O)c1ccc(NC(=O)c2ccc(N(C)C)cc2)cc1`, the emission maximum is, setting by setting: (in C1CCCCC1) 345 nm; (in C1CCOC1) 468 nm; (in CC#N) 550 nm; (in CCOCC) 470 nm.

For the setting “in c1ccccc1”, `Cc1nc2c(ccc3ccccc32)oc1=O` displayed an emission maximum of 424 nm.

Turning to `CC(=O)Nc1ccccc1C(=O)OC1CC(C)CCC1C(C)C` (stereo not given), the emission maximum reads like this: (in C1CCCCC1) 363 nm; (in CC#N) 369 nm; (in CCO) 370 nm; (in Cc1ccccc1) 368 nm.

In the case of `Cc1ccc2nc3c(nc2c1)c(-c1ccccc1)nn3C`, the emission maximum runs as follows: (in C1CCCCC1) 472 nm; (in C1CCOC1) 500 nm; (in CC#N) 516 nm.

`CC[N+]1(CC)CN2C(C)=CC(C)=C(C(=O)O)C2=N1`: the emission maximum (in CN(C)C=O) is 449 nm and the emission maximum (in O) is 449 nm.

`CNc1cc2nc3cc(Br)c(Br)cc3nc2cc1NC` came in with an emission maximum (in CCO) of 542 nm.

For the setting “in O”, `COc1ccc(OC)c(C2=C3C=CC(=[N+](C)C)C=C3[Si](C)(C)c3cc(N(C)C)ccc32)c1` displayed an emission maximum of 665 nm.

Regarding `CN(C)c1ccc(-c2cccc3nsnc23)cc1`, the emission maximum (in ClCCl) was found to be 635 nm.

In the case of `O=C1/C(=C2\Sc3ccccc3C2=O)Sc2ccccc21`, the emission maximum is reported as 590 nm (in C1COCCO1); 607 nm (in CN(C)C=O); 624 nm (in CO); 614 nm (in CS(C)=O); 598 nm (in c1ccccc1).

`CCOC(=O)C1=C(C(=O)OCC)C2(c3ccccc3-c3ccccc32)[C@@H](c2ccc([N+](=O)[O-])cc2)C=C2c3cc(OC)c(OC)cc3CCN21`: the emission maximum (in ClCCl) amounted to 430 nm.

As to `CCCCCC(CC)C1(C(CC)CCCCC)c2ccccc2-c2ccc(C#Cc3cc(C#Cc4ccc5c(c4)C(C(CC)CCCCC)(C(CC)CCCCC)c4ccccc4-5)c4ccc5c(C#Cc6ccc7c(c6)C(C(CC)CCCCC)(C(CC)CCCCC)c6ccccc6-7)cc(C#Cc6ccc7c(c6)C(C(CC)CCCCC)(C(CC)CCCCC)c6ccccc6-7)c6ccc3c4c65)cc21` (stereo not given), the emission maximum was determined as 507 nm (in C1CCCCC1); 513 nm (in C1CCOC1); 509 nm (in CCOC(C)=O); 518 nm (in CN(C)C=O); 513 nm (in Cc1ccccc1); 514 nm (in ClC(Cl)Cl). Moreover, where the note is “in ClCCl”, the emission maximum amounted to 514 nm.

For the compound `Clc1ccc(/C=C/c2ccc(-c3nc4c5cccnc5c5ncccc5c4[nH]3)cc2)cc1`, the emission maximum is 463 nm (in C1CCOC1), 471 nm (in CC#N), 473 nm (in CO) and 467 nm (in ClCCl).

In turn, `CC1=C(c2ccccc2)C(C)=[N+]2C1=C(c1c(-c3ccccn3)nc3ccccn13)c1c(C)cc(C)n1[B-]2(F)F` came in with an emission maximum (in ClCCl) of 566 nm.

`O=C1c2cccc3c(-n4c5ccccc5c5ccccc54)ccc(c23)C(=O)N1C1CCCCC1`: the emission maximum reads like this: (in C1CCOC1) 546 nm; (in CCCCCC) 441 nm; (in ClC(Cl)Cl) 495 nm; (in ClCCl) 563 nm.

Take `C(=C\c1ncc(-c2ccc(OCc3ccccc3)c(OCc3ccccc3)c2)o1)/c1cccc(N2CCN(c3ccccc3)CC2)c1`: the emission maximum (in ClCCl) was 500 nm.

Regarding `N#Cc1nc2cnc(N)nc2n1Cc1ccccc1`, the emission maximum is, setting by setting: (in C1COCCO1) 381 nm; (in CC#N) 381 nm; (in CO) 398 nm; (in ClCCl) 381 nm; (in O) 406 nm.

`CCN(CC)c1ccc(/C=C/C(=O)c2c(O)cc(C)oc2=O)cc1`: the emission maximum amounted to 562 nm (in CC#N); 562 nm (in CCCO); 570 nm (in CCO); 545 nm (in CCOC(C)=O); 534 nm (in Cc1ccccc1); 575 nm (in ClCCl).

`CCCCCCN1C(=O)c2cccc3c(-c4ccc(-c5cccs5)s4)ccc(c23)C1=O` displayed an emission maximum (in ClC(Cl)Cl) of 534 nm.

For the origin of these results see the Deep4Chem optical property database.
